Measurements taken from patent US20240116985A1, “STAPLED PEPTIDES AND METHODS THEREOF” (priority 2020, published 2024).
Where two headings read alike, the source gives them in different places.

Assays:
[1] = molecular target: T1, full-length beta-Catenin (Uniprot ID P35222) (Homo sapiens, UniProt P35222); experiment: Fluorescence polarization IC50 (beta-catenin / 5FAM-TCF4 10-53 competition); assay type: binding
T1 construct: 10 nM full-length beta-Catenin (Uniprot ID P35222)
T1 sequence (P35222 1-781): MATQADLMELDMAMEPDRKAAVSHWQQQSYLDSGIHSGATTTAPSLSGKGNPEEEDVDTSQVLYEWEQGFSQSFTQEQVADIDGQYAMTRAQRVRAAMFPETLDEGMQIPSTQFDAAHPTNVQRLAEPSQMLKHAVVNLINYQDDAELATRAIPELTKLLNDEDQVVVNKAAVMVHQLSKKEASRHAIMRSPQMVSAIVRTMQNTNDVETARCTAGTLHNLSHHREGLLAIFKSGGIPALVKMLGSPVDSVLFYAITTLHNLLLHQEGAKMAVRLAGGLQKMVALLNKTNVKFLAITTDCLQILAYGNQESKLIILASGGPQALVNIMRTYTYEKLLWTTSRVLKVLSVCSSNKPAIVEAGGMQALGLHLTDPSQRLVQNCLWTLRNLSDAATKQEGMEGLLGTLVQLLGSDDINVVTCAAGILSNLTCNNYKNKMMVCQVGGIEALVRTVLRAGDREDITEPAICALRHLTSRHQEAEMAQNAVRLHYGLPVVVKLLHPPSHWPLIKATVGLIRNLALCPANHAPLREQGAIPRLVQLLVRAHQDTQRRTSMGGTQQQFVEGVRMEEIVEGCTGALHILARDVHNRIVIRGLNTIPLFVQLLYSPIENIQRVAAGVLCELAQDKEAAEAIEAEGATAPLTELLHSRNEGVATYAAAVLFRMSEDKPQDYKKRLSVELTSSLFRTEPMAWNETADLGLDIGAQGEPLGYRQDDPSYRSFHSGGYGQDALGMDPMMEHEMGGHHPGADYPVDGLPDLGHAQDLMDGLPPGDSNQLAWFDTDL

[2] = CHI Log D procedure; assay type: physicochemical; conditions: for chromatographic logD: pH 7.4, CHI Log D; for CHI Log D: pH 7.4
[3] = molecular target: T2, beta-catenin/TCF4 engagement (Homo sapiens, UniProt P35222); experiment: Nano-BRET target engagement assay (B-cat-Halo & TCF4-Luc in HEK293 cells); assay type: cell-based
T2 construct: expressed in transfected cells; host or cells: HEK293
T2 sequence (P35222 1-781): T1 sequence (P35222 1-781)

[4] = absolute IC50, read-out: NanoBRET Abs IC50
[5] = fluorescence polarization, beta-catenin, read-out: FP EC50

Compound	IC50 ([1]; read-out: beta-Catenin FP IC50) [nM]	chromatographic logD [2]	IC50 [3, 4] [nM]	IC50 ([3]; read-out: NanoBRET IC50) [nM]	IC50 ([3]; read-out: NanoBRET Abs IC50) [nM]	IC50 [1, 5] [nM]	CHI Log D [2]
CC(=O)N1CCC[C@]12CC=CCCCC1(CCCC=CCCCOC(=O)N3CC[C@@](C(=O)N[C@@H](Cc4ccsc4)C(=O)N[C@@H](Cc4csc5ccccc45)C(=O)N[C@@H](CCC(N)=O)C(N)=O)(C3)NC(=O)[C@H](Cc3ccccc3)NC(=O)[C@H](Cc3ccccc3)NC(=O)[C@H](C)NC(=O)[C@H](C)NC(=O)[C@H](CN(CC(=O)O)CC(F)(F)F)NC(=O)[C@H](CC(=O)O)NC1=O)NC(=O)[C@H](CC(C)(C)C)NC(=O)[C@H](CC(=O)O)NC2=O (stereo partly drawn) [I-848, Ac-PL3-Asp-Npg-B5-Asp-TfeGA-Ala-Ala-Phe-Phe-PyrS2-3Thi-BztA-Gln-NH2]	13	2.46	7000				
CC(=O)N1CCC[C@]12CC=CCCCC1(CCCC=CCCCOC(=O)N3CC[C@@](C(=O)N[C@@H](Cc4ccsc4)C(=O)N[C@@H](Cc4csc5ccccc45)C(=O)N[C@@H](CCC(N)=O)C(N)=O)(C3)NC(=O)[C@H](Cc3ccccc3)NC(=O)[C@H](Cc3ccccc3)NC(=O)[C@H](C)NC(=O)[C@H](C)NC(=O)[C@H](Cc3ccc(C(=O)O)cc3)NC(=O)[C@H](CC(=O)O)NC1=O)NC(=O)[C@H](CC(C)(C)C)NC(=O)[C@H](CC(=O)O)NC2=O (stereo partly drawn) [I-850, Ac-PL3-Asp-Npg-B5-Asp-4COOHF-Ala-Ala-Phe-Phe-PyrS2-3Thi-BztA-Gln-NH2]	26	2.26	16400				
CC(=O)N1CCC[C@]12CC=CCCCC1(CCCC=CCCCOC(=O)N3CC[C@@](C(=O)N[C@@H](Cc4ccsc4)C(=O)N[C@@H](Cc4csc5ccccc45)C(=O)N[C@@H](CCC(N)=O)C(N)=O)(C3)NC(=O)[C@H](CC(C)C)NC(=O)[C@H](Cc3ccccc3)NC(=O)[C@H](C)NC(=O)[C@H](C)NC(=O)[C@H](Cc3ccc(C(=O)O)cc3)NC(=O)[C@H](CC(=O)O)NC1=O)NC(=O)[C@H](CC(C)(C)C)NC(=O)[C@H](CC(=O)O)NC2=O (stereo partly drawn) [I-851, Ac-PL3-Asp-Npg-B5-Asp-4COOHF-Ala-Ala-Phe-Leu-PyrS2-3Thi-BztA-Gln-NH2]	16	2.15	7600				
CC(=O)N1CCC[C@]12CC=CCCCC1(CCCC=CCCCOC(=O)N3CC[C@@](C(=O)N[C@@H](Cc4ccsc4)C(=O)N[C@@H](Cc4csc5ccccc45)C(=O)N[C@@H](CCC(N)=O)C(N)=O)(C3)NC(=O)[C@H](CC(C)C)NC(=O)[C@H](Cc3ccccc3)NC(=O)[C@H](C)NC(=O)[C@H](C)NC(=O)[C@H](Cc3ccccc3C(=O)O)NC(=O)[C@H](CC(=O)O)NC1=O)NC(=O)[C@H](CC(C)(C)C)NC(=O)[C@H](CC(=O)O)NC2=O (stereo partly drawn) [I-854, Ac-PL3-Asp-Npg-B5-Asp-2COOHF-Ala-Ala-Phe-Leu-PyrS2-3Thi-BztA-Gln-NH2]	8	2.48	3600	4600			
CC(=O)N1CCC[C@]12CC=CCCCC1(CCCC=CCCCOC(=O)N3CC[C@@](C(=O)N[C@@H](Cc4ccsc4)C(=O)N[C@@H](Cc4csc5ccccc45)C(=O)N[C@@H](CCC(N)=O)C(N)=O)(C3)NC(=O)[C@H](CC(C)C)NC(=O)[C@H](Cc3ccccc3)NC(=O)[C@H](C)NC(=O)[C@H](C)NC(=O)[C@H](CC(N)=O)NC(=O)[C@H](CC(=O)O)NC1=O)NC(=O)[C@H](CC(C)(C)C)NC(=O)[C@H](CC(=O)O)NC2=O (stereo partly drawn) [I-856, Ac-PL3-Asp-Npg-B5-Asp-Asn-Ala-Ala-Phe-Leu-PyrS2-3Thi-BztA-Gln-NH2]	17	2.45			6800		
CC(=O)N1CCC[C@]12CC=CCCCC1(CCCC=CCCCOC(=O)N3CC[C@@](C(=O)N[C@@H](Cc4ccsc4)C(=O)N[C@@H](Cc4csc5ccccc45)C(N)=O)(C3)NC(=O)[C@H](CC(N)=O)NC(=O)[C@H](Cc3ccccc3)NC(=O)[C@H](C)NC(=O)[C@H](C)NC(=O)[C@H]([C@@H](C)O)NC(=O)[C@H](CC(=O)O)NC1=O)NC(=O)[C@H](CC(C)(C)C)NC(=O)[C@H](CC(=O)O)NC2=O (stereo partly drawn) [I-859, Ac-PL3-Asp-Npg-B5-Asp-Thr-Ala-Ala-Phe-Asn-PyrS2-3Thi-BztA-NH2]	36				> 20000	36	2.711
CC(=O)N1CCC[C@]12CC=CCCCC1(CCCC=CCCCOC(=O)N3CC[C@@](C(=O)N[C@@H](Cc4ccsc4)C(=O)N[C@@H](Cc4csc5ccccc45)C(=O)N[C@@H](CCC(N)=O)C(=O)NCCCCCCN)(C3)NC(=O)[C@H](CC(N)=O)NC(=O)[C@H](Cc3ccccc3)NC(=O)[C@H](C)NC(=O)[C@H](C)NC(=O)[C@H](CC(=O)O)NC(=O)[C@H](CC(=O)O)NC1=O)NC(=O)[C@H](CC(C)(C)C)NC(=O)[C@H](CC(=O)O)NC2=O (stereo partly drawn) [I-881, Ac-PL3-Asp-Npg-B5-Asp-Asp-Ala-Ala-Phe-Asn-PyrS2-3Thi-BztA-Gln-6AmHex]	10				23800	10	−0.008
CC(=O)N1CCC[C@]12CC=CCCCC1(CCCC=CCCCOC(=O)N3CC[C@@](C(=O)N[C@@H](Cc4ccsc4)C(=O)N[C@@H](Cc4csc5ccccc45)C(=O)N[C@@H](CCC(N)=O)C(=O)NCCCCCCN)(C3)NC(=O)[C@H](CC(N)=O)NC(=O)[C@H](Cc3ccccc3)NC(=O)[C@H](C)NC(=O)[C@H](C)NC(=O)[C@H](CC(=O)O)NC(=O)[C@H](CC(=O)O)NC1=O)NC(=O)[C@H](CC(C)(C)C)NC(=O)[C@H](CC(=O)O)NC2=O (stereo partly drawn) [I-882, Ac-PL3-Asp-Npg-B5-Asp-Asp-Ala-Ala-Phe-Asn-PyrS2-3Thi-BztA-Gln-6AmHex]	22			22500	41400	22	2.028
COCCOCCOCCOCCC(=O)NCCCC[C@@H]1NC(=O)[C@H](C)NC(=O)[C@H](CC(=O)O)NC(=O)[C@H](CC(=O)O)NC(=O)C2(CCCC=CCCCOC(=O)N3CC[C@@](C(=O)N[C@@H](Cc4ccsc4)C(=O)N[C@@H](Cc4csc5ccccc45)C(=O)N[C@@H](CCC(N)=O)C(N)=O)(C3)NC(=O)[C@H](CC(N)=O)NC(=O)[C@H](Cc3ccccc3)NC1=O)CCCC=CC[C@]1(CCCN1C(C)=O)C(=O)N[C@@H](CC(=O)O)C(=O)N[C@@H](CC(C)(C)C)C(=O)N2 (stereo partly drawn) [I-894, Ac-PL3-Asp-Npg-B5-Asp-Asp-Ala-[mPEG4]Lys-Phe-Asn-PyrS2-3Thi-BztA-Gln-NH2]	15	1.45			> 20000		
COCCOCCC(=O)NCCCC[C@H](NC(=O)[C@H](CCC(N)=O)NC(=O)[C@H](Cc1csc2ccccc12)NC(=O)[C@H](Cc1ccsc1)NC(=O)[C@]12CCN(C1)C(=O)OCCCC=CCCCC1(CCCC=CC[C@]3(CCCN3C(C)=O)C(=O)N[C@@H](CC(=O)O)C(=O)N[C@@H](CC(C)(C)C)C(=O)N1)C(=O)N[C@@H](CC(=O)O)C(=O)N[C@@H](CC(=O)O)C(=O)N[C@@H](C)C(=O)N[C@@H](C)C(=O)N[C@@H](Cc1ccccc1)C(=O)N[C@@H](CC(N)=O)C(=O)N2)C(N)=O (stereo partly drawn) [I-911, Ac-PL3-Asp-Npg-B5-Asp-Asp-Ala-Ala-Phe-Asn-PyrS2-3Thi-BztA-Gln-[mPEG2]Lys-NH2]	12	1.82			22900		
CC(=O)N1CCC[C@]12CC=CCCCC1(CCCC=CCCCOC(=O)N3CC[C@@](C(=O)N[C@@H](Cc4ccccc4Cl)C(=O)N[C@@H](Cc4csc5ccccc45)C(=O)N[C@@H](CCC(N)=O)C(N)=O)(C3)NC(=O)[C@H](Cc3ccccc3)NC(=O)[C@H](Cc3ccccc3)NC(=O)[C@H](C)NC(=O)[C@H](C)NC(=O)[C@H](CN(CC(=O)O)CC(F)(F)F)NC(=O)[C@H](CC(=O)O)NC1=O)NC(=O)[C@H](CC(C)(C)C)NC(=O)[C@H](CC(=O)O)NC2=O (stereo partly drawn) [I-923, Ac-PL3-Asp-Npg-B5-Asp-TfeGA-Ala-Ala-Phe-Phe-PyrS2-2C1F-BztA-Gln-NH2]	27	2.46	6000				
CC(=O)N1CCC[C@]12CC=CCCCC1(CCCC=CCCCOC(=O)N3CC[C@@](C(=O)N[C@@H](Cc4cccc(Cl)c4)C(=O)N[C@@H](Cc4csc5ccccc45)C(=O)N[C@@H](CCC(N)=O)C(N)=O)(C3)NC(=O)[C@H](CC(N)=O)NC(=O)[C@H](Cc3ccccc3)NC(=O)[C@H](C)NC(=O)[C@H](C)NC(=O)[C@H](CN(CC(=O)O)CC(F)(F)F)NC(=O)[C@H](CC(=O)O)NC1=O)NC(=O)[C@H](CC(C)(C)C)NC(=O)[C@H](CC(=O)O)NC2=O (stereo partly drawn) [I-925, Ac-PL3-Asp-Npg-B5-Asp-TfeGA-Ala-Ala-Phe-Asn-PyrS2-3C1F-BztA-Gln-NH2]	21				20000	21	2.344
